Experimental data published in ChEMBL document CHEMBL3046147, “Synthesis and Herbicidal Activity of 1-Arylalkyl-3-pyrrolin-2-one Derivatives” (J Pestic Sci, 2000).

Columns and labels:
Sagittaria pygmaea = assay: Herbicide activity against Sagittaria pygmaea under greenhouse condition compound treated at 0.5 leaf-stage measured after 14 to 20 days; assay type: functional
Oryza sativa [1] = assay: Phytotoxicity against two-leaf stage Oryza sativa cv. Nihonbare (rice) planted 1 cm depth measured after […]; assay type: organism-based; conditions: in vivo
Oryza sativa [2] = assay: Phytotoxicity against two-leaf stage Oryza sativa cv. Nihonbare (rice) planted 3 cm depth measured after […]; assay type: organism-based; conditions: in vivo
Echinochloa oryzicola [3] = assay: Pre-emergence herbicide activity against Echinochloa oryzicola under greenhouse condition measured after 14 to 20 days; assay type: functional
[4] = test system: Schoenoplectiella juncoides; assay: Herbicide activity against Schoenoplectiella juncoides under greenhouse condition compound treated at emergence-stage measured after 14 to 20 days; assay type: functional
Echinochloa oryzicola [5] = assay: Herbicide activity against Echinochloa oryzicola under greenhouse condition compound treated at 2 leaf-stage measured after 14 to 20 days; assay type: functional

Compound	MED (Sagittaria pygmaea)	MTD (Oryza sativa [1])	MTD (Oryza sativa [2])	MED (Echinochloa oryzicola [3])	MED [4]	MED (Echinochloa oryzicola [5])
CC1=C(c2cccc([N+](=O)[O-])c2)C(=O)N(C(C)(C)c2nc3ccccc3s2)C1	160 g/acre	80 g/acre	80 g/acre	160 g/acre	160 g/acre	<5 g/acre
CC1=C(c2ccccc2)C(=O)N(C(C)(C)c2nc3cccnc3s2)C1	5 g/acre	> 0.313 g/acre	0.313 g/acre	0.313 g/acre	2.5 g/acre	2.5 g/acre
CC1=C(c2ccccc2)C(=O)N(C(C)(C)c2cc3ccccc3o2)C1	80 g/acre	10 g/acre	20 g/acre	0.313 g/acre	80 g/acre	2.5 g/acre
CC1=C(c2ccc(F)cc2F)C(=O)N(C(C)(C)c2nc3ccccc3s2)C1	10 g/acre	> 5 g/acre	10 g/acre	1.25 g/acre	10 g/acre	<5 g/acre
CC1=C(Oc2ccccc2)C(=O)N(C(C)(C)c2nc3ccccc3s2)C1	40 g/acre	40 g/acre	40 g/acre	80 g/acre	80 g/acre	–
CCOc1ccc2nc(C(C)(C)N3CC(C)=C(c4ccccc4)C3=O)sc2c1	80 g/acre	5 g/acre	10 g/acre	1.25 g/acre	160 g/acre	<5 g/acre
CC1=C(c2ccccc2)C(=O)N(C(C)(C)c2sc3ccccc3[n+]2[O-])C1	160 g/acre	80 g/acre	80 g/acre	<10 g/acre	160 g/acre	<5 g/acre
COc1ccc(OC)c(C2=C(C)CN(C(C)(C)c3nc4ccccc4s3)C2=O)c1	160 g/acre	10 g/acre	20 g/acre	80 g/acre	160 g/acre	<5 g/acre
CC1=C(c2ccccc2C(=O)O)C(=O)N(C(C)(C)c2nc3ccccc3s2)C1	160 g/acre	40 g/acre	20 g/acre	160 g/acre	160 g/acre	<5 g/acre
CC1=C(c2ccccc2)C(=O)N(C(C)(C)c2nc3c(C)cccc3s2)C1	80 g/acre	5 g/acre	20 g/acre	2.5 g/acre	160 g/acre	<5 g/acre
CC1=C(c2ccccc2)C(=O)N(C(C)(C)c2ccsc2)C1	20 g/acre	20 g/acre	40 g/acre	5 g/acre	5 g/acre	<10 g/acre
COc1ccc(C2=C(C)CN(C(C)(C)c3nc4ccccc4s3)C2=O)cc1OC	160 g/acre	80 g/acre	80 g/acre	160 g/acre	160 g/acre	<5 g/acre
CC1=C(c2cccc(Cl)c2)C(=O)N(C(C)(C)c2nc3ccccc3s2)C1	80 g/acre	5 g/acre	10 g/acre	10 g/acre	40 g/acre	<5 g/acre
CC1=C(c2ccccc2)C(=O)N(C(C)(C)c2ccc(Cl)s2)C1	80 g/acre	10 g/acre	20 g/acre	0.625 g/acre	10 g/acre	10 g/acre
CC1=C(c2ccccc2)C(=O)N(C(C)(C)c2nc3cc(C(F)(F)F)ccc3s2)C1	160 g/acre	20 g/acre	20 g/acre	80 g/acre	80 g/acre	<5 g/acre
CC1=C(c2ccc(F)cc2)C(=O)N(C(C)(C)c2nc3ccccc3s2)C1	20 g/acre	> 5 g/acre	20 g/acre	5 g/acre	20 g/acre	5 g/acre
CC1=C(c2ccccc2C#N)C(=O)N(C(C)(C)c2nc3ccccc3s2)C1	40 g/acre	> 5 g/acre	5 g/acre	10 g/acre	5 g/acre	<5 g/acre
CC1=C(c2ccccc2)C(=O)N(C(C)(C)c2nc3cc(C#N)ccc3s2)C1	40 g/acre	40 g/acre	10 g/acre	5 g/acre	20 g/acre	<5 g/acre
CC1=C(c2ccccc2)C(=O)N(C(C)(C)c2csc3ccccc23)C1	80 g/acre	2.5 g/acre	10 g/acre	2.5 g/acre	80 g/acre	<5 g/acre
